Measurements from US9456599B2, “Adjuvants” (SYNGENTA LIMITED, priority 2012, dated 2016).

Tests used:
Septoria tritici [1] = test: Septoria tritici on wheat, epoxiconazole with compound E (Example 9); format: in vivo
Procedure: (§1) Wheat plants were inoculated with the fungus Septoria tritici. Four days after inoculation the plants were sprayed with a diluted suspension concentrate formulation of the fungicide epoxiconazole at rates of 3, 10, 30 and 100 mg of the fungicide per liter of spray solution, using a laboratory track sprayer which delivered the spray at a rate of 200 liters per hectare. Spray tests were also carried out with a diluted suspension concentrate additionally comprising the carbonate compound E (see Table 7) added to the spray solution at a rate of 0.1% v/v, based on the quantity of spray liquor. The leaves of the plants were assessed visually 12 days after the spray application and the damage was expressed as the percentage of the leaf area infected. Each spray test was replicated four times across the four application rates.
The results shown in Table 14 below are mean averages over the four rates of epoxiconazole and the four replicates, and are compared to the efficacy of epoxiconazole in the absence of an adjuvant, and epoxiconazole in the presence of oleyl ethoxylate 20EO butyl end capped adjuvant used as a standard adjuvant for comparative purposes (at 0.1% by volume).

Abutilon theophrasti [2] = test: Glasshouse post-emergence spray test, fomesafen with adjuvant (Example 2); format: in vivo; details: fomesafen 60 or 120 g/ha, carbonate 0.2% v/v or Turbocharge 0.5% v/v; mean over two rates, three replicates, 14 and 21 days
Procedure: (§2) Setaria viridis, Chenopodium album, Abutilon theophrasti and Ipomea hederacea seeds were sown into standard soil in pots and cultivated under controlled conditions in a glasshouse (at 24/18° C. day/night; 16 hours light; 65% humidity).
(§3) When the plants were at the vegetative stage of 2-4 leaves they were sprayed with an aqueous spray solution containing the herbicide fomesafen and 0.2% v/v of one of the carbonates B92-P-Carbonate, B92-B-Carbonate and B96-P-Carbonate (see Table 1).
(§4) The spray solution was applied with a cabinet tracksprayer with a flat fan nozzle (Teejet 11002VS) and an application volume of 200 liter/ha (at 2 bar). Fomesafen was applied at either 60 or 120 grams of pesticide per hectare.
(§5) The test plants were then grown on, in a glasshouse under controlled conditions (at 24/18° C. day/night; 16 hours light; 65% humidity) and watered twice a day. After 14 and 21 days the test was evaluated for general crop injury (100% equals total damage to a plant; 0% equals no damage to a plant).
(§6) The results shown in Table 4 below are mean averages over the two rates of fomesafen, three replicates and the two assessment timings, and are compared to the efficacy of fomesafen in the absence of an adjuvant, and fomesafen in the presence of the commercially available tank-mix adjuvant, Turbocharge®, which was used at an application rate of 0.5% by volume of the spray tank.

Chenopodium album [3] = test: as above; format: in vivo; details: fomesafen 60 or 120 g/ha, carbonate 0.2% v/v or Turbocharge 0.5% v/v; mean over two rates, three replicates, 14 and 21 days
Procedure: as §2, §3, §4, §5, §6

Setaria viridis [4] = test: as above; format: in vivo; details: fomesafen 60 or 120 g/ha, carbonate 0.2% v/v or Turbocharge 0.5% v/v; mean over two rates, three replicates, 14 and 21 days
Procedure: as §2, §3, §4, §5, §6

COMBEN = test: as above; format: in vivo, Ipomea hederacea; details: fomesafen 60 or 120 g/ha, carbonate 0.2% v/v or Turbocharge 0.5% v/v; mean over two rates, three replicates, 14 and 21 days
[5] = system: Setaria viridis, Chenopodium album, Abutilon theophrasti and Ipomea hederacea; test: Glasshouse post-emergence spray test, fomesafen with adjuvant (Example 2), mean across species; format: in vivo; details: fomesafen 60 or 120 g/ha, carbonate 0.2% v/v or Turbocharge 0.5% v/v; 14 and 21 days; Tukey HSD letter
Procedure: as §2, §3, §4, §5, §6

Abutilon theophrasti [6] = test: Glasshouse post-emergence spray test, nicosulfuron with adjuvant (Example 1); format: in vivo; details: nicosulfuron 30 or 60 g/ha, adjuvant 0.2% by volume; mean over two rates, three replicates, 17 and 21 days
Procedure: (§7) Setaria viridis, Chenopodium album, Abutilon theophrasti and Digitaria sanguinalis seeds were sown into standard soil in pots and cultivated under controlled conditions in a glasshouse (at 24/18° C. day/night; 16 hours light; 65% humidity).
(§8) When the plants were at the vegetative stage of 3-4 leaves they were sprayed with an aqueous spray solution containing the herbicide nicosulfuron and 0.2% v/v of one of the carbonates, B92-P-Carbonate, B92-B-Carbonate and B96-P-Carbonate (see Table 1).
(§9) Each spray solution was applied with a cabinet tracksprayer with a flat fan nozzle (Teejet 11002VS) and an application volume of 200 liter/ha (at 2 bar). Nicosulfuron was applied at either 30 or 60 grams of pesticide per hectare.
(§10) The test plants were then grown on, in a glasshouse under controlled conditions (at 24/18° C. day/night; 16 hours light; 65% humidity) and watered twice a day. After 17 and 21 days the test was evaluated for general crop injury (100% equals total damage to a plant; 0% equals no damage to a plant).
(§11) The results shown in Table 3 below are mean averages over the two rates of nicosulfuron, three replicates and the two assessment timings, and are compared to the efficacy of nicosulfuron in the absence of an adjuvant and nicosulfuron in the presence of the commercially available tank-mix adjuvant, Atplus411F® (at 0.2% by volume).

Chenopodium album [7] = test: as above; format: in vivo; details: nicosulfuron 30 or 60 g/ha, adjuvant 0.2% by volume; mean over two rates, three replicates, 17 and 21 days
Procedure: as §7, §8, §9, §10, §11

Digitaria sanguinalis = test: as above; format: in vivo; details: nicosulfuron 30 or 60 g/ha, adjuvant 0.2% by volume; mean over two rates, three replicates, 17 and 21 days
Procedure: as §7, §8, §9, §10, §11

Setaria viridis [8] = test: as above; format: in vivo; details: nicosulfuron 30 or 60 g/ha, adjuvant 0.2% by volume; mean over two rates, three replicates, 17 and 21 days
Procedure: as §7, §8, §9, §10, §11

[9] = system: Setaria viridis, Chenopodium album, Abutilon theophrasti and Digitaria sanguinalis; test: Glasshouse post-emergence spray test, nicosulfuron with adjuvant (Example 1), mean across species; format: in vivo; details: nicosulfuron 30 or 60 g/ha, adjuvant 0.2% by volume; 17 and 21 days; Tukey HSD letter
Procedure: as §7, §8, §9, §10, §11

[10] = system: Setaria viridis, Chenopodium album, Abutilon theophrasti and Digitaria sanguinalis; test: Glasshouse spray test, nicosulfuron with carbonates A-E (Example 5), mean over four plant species; format: in vivo; details: for Mean % Phytotoxicity: Atplus 411F 0.5% by volume, 22 days, mean over rates, replicates, four species; for Adjuvant effect on efficacy of nicosulfuron (in words): 0.2% v/v carbonate with nicosulfuron, Tables 8 and 9
Procedure: as §7
When the plants were at the vegetative stage of 3-4 leaves they were sprayed with an aqueous spray solution containing the herbicide nicosulfuron and 0.2% v/v of one of the carbonates A, B, C, D and E (see Table 7).
Each spray solution was applied with a cabinet tracksprayer with a flat fan nozzle (Teejet 11002VS) and an application volume of 200 liter/ha (at 2 bar). Nicosulfuron was applied at either 15 or 60 grams of pesticide per hectare.
The test plants were then grown on, in a glasshouse under controlled conditions (at 24/18° C. day/night; 16 hours light; 65% humidity) and watered twice a day. After 22 days the test was evaluated for general crop injury or phytotoxicity (100% equals total damage to a plant; 0% equals no damage to a plant).
The results shown in Table 8 below are mean averages over the two rates of nicosulfuron, the three replicates and the four plant species, and are compared to the efficacy of nicosulfuron in the absence of an adjuvant and nicosulfuron in the presence of the commercially available tank-mix adjuvant, Atplus411F® (at 0.5% by volume).

[11] = system: Brachiaria plantaginea, Digitaria sanguinalis, Commelina benghalensis and Polygonum convulvulus; test: Glasshouse spray test, mesotrione with carbonates A-D (Example 6), mean over four plant species; format: in vivo; details: 0.2% v/v carbonate with mesotrione, Table 10
Procedure: Brachiaria plantaginea, Digitaria sanguinalis, Commelina benghalensis and Polygonum convulvulus seeds were sown into standard soil in pots and cultivated under controlled conditions in a glasshouse (at 24/18° C. day/night; 16 hours light; 65% humidity).
When the plants were at the vegetative stage of 2-4 leaves they were sprayed with an aqueous spray solution containing the herbicide mesotrione and 0.2% v/v of one of the carbonates A, B, C and D (see Table 7).
The spray solution was applied with a cabinet tracksprayer with a flat fan nozzle (Teejet 11002VS) and an application volume of 200 liter/ha (at 2 bar). Mesotrione was applied at either 30 or 60 grams of pesticide per hectare.
The test plants were then grown on, in a glasshouse under controlled conditions (at 24/18° C. day/night; 16 hours light; 65% humidity) and watered twice a day. After 25 days the test was evaluated for general crop injury or phytotoxicity (100% equals total damage to a plant; 0% equals no damage to a plant).
The results shown in Table 10 below are mean averages over the two rates of mesotrione, the three replicates and the four plant species and are compared to the efficacy of mesotrione in the absence of an adjuvant, and mesotrione in the presence of the commercially available tank-mix adjuvant, Tween 20 ®+Rhodasurf DA/630-E® (combined in a 2:1 ratio) at 0.5% by volume.

[12] = system: Avena fatua, Lolium perenne, Setaria viridis and Alopecurus myosuroides; test: Glasshouse spray test, pinoxaden with carbonates A-E (Example 7), mean over four plant species; format: in vivo; details: 0.2% v/v carbonate with pinoxaden, Tables 11 and 12
Procedure: Avena fatua, Lolium perenne, Setaria viridis and Alopecurus myosuroides seeds were sown into standard soil in pots and cultivated under controlled conditions in a glasshouse (at 20/16° C. day/night; 15 hours light; 65% humidity).
When the plants were at the vegetative stage of 2-3 leaves they were sprayed with an aqueous spray solution containing the herbicide pinoxaden and 0.2% v/v of one of the carbonates A, B, C, D and E (see Table 7).
The spray solution was applied with a cabinet tracksprayer with a flat fan nozzle (Teejet 11002VS) and an application volume of 200 liter/ha (at 2 bar). Pinoxaden was applied at either 7.5 or 15 grams of pesticide per hectare.
The test plants were then grown on. in a glasshouse under controlled conditions (at 24/18° C. day/night; 16 hours light; 65% humidity) and watered twice a day. After 22 days the test was evaluated for general crop injury or phytotoxicity (100% equals total damage to a plant; 0% equals no damage to a plant).
The results shown in Table 11 below are mean averages over the two rates of pinoxaden, the three replicates and the four plant species, and are compared to the efficacy of pinoxaden in the absence of an adjuvant, and pinoxaden in the presence of tris(2-ethylhexyl)phosphate, used as a standard adjuvant for comparative purposes (at 0.2% by […] volume).

Septoria tritici [13] = test: Septoria tritici on wheat, isopyrazam with compound E (Example 8); format: in vivo; details: 0.1% v/v compound E with isopyrazam, Table 13
Procedure: as §1, with “isopyrazam” for “epoxiconazole”
The results shown in Table 13 below are mean averages over the four rates of isopyrazam and the four replicates, and are compared to the efficacy of isopyrazam in the absence of an adjuvant, and isopyrazam in the presence of oleyl ethoxylate 20EO butyl end capped adjuvant used as a standard adjuvant for comparative purposes (at 0.1% by volume).

## Fc1ccc([C@]2(Cn3cncn3)O[C@H]2c2ccccc2Cl)cc1 (racemic) [Epoxiconazole]
Septoria tritici [1]; wheat leaf area infected 12 days after spray, epoxiconazole 3, 10, 30 and 100 mg/l, adjuvant 0.1% by volume, mean over four rates, four replicates
  Mean % infection: 40.0%

## CS(=O)(=O)NC(=O)c1cc(Oc2ccc(C(F)(F)F)cc2Cl)ccc1[N+](=O)[O-] [Fomesafen]
Abutilon theophrasti [2]
  Mean percentage kill ABUTH: 23.3%
Chenopodium album [3]
  Mean percentage kill CHEAL: 58.3%
Setaria viridis [4]
  Mean percentage kill SETVI: 19.2%
COMBEN
  Mean percentage kill COMBEN: 15.0%
[5]
  Mean percentage kill, Mean across species: 29.0 C %

## COc1cc(OC)nc(NC(=O)NS(=O)(=O)c2ncccc2C(=O)N(C)C)n1 [Nicosulfuron]
Abutilon theophrasti [6]
  Mean percentage kill ABUTH: 48.3%
Chenopodium album [7]
  Mean percentage kill CHEAL: 36.7%
Digitaria sanguinalis
  Mean percentage kill DIGSA: 31.7%
Setaria viridis [8]
  Mean percentage kill SETVI: 79.2%
[9]
  Mean percentage kill, Mean across species: 49.0 B %
[10]; Table 8: nicosulfuron 15 or 60 g/ha, compounds A-D 0.2% by volume
  Mean % Phytotoxicity: 36.46%
[10]; Table 9: nicosulfuron 15 or 60 g/ha, compound E 0.2% by volume
  Mean % Phytotoxicity: 28.3%

## CCOC(=O)OCC(COC(=O)OCC)OC(=O)OCC [compound A, Glycerol-(CO3-ethyl)3]
[10]
  Adjuvant effect on efficacy of nicosulfuron (in words): increase the efficacy of nicosulfuron compositions
[11]
  Adjuvant effect on efficacy of mesotrione (in words): particularly effective at increasing the efficacy of mesotrione compositions

## CCCCC(CC)COC(=O)OCC(COC(=O)OCC(CC)CCCC)OC(=O)OCC(CC)CCCC (stereo not drawn) [compound B, Glycerol-(CO3-2-ethylhexy1)3]
[10]
  Adjuvant effect on efficacy of nicosulfuron (in words): increase the efficacy of nicosulfuron compositions
[11]
  Adjuvant effect on efficacy of mesotrione (in words): particularly effective at increasing the efficacy of mesotrione compositions
[12]
  Adjuvant effect on efficacy of pinoxaden (in words): most effective at increasing the efficacy of the pinoxaden composition

## Glycerol-(6EO-CO3-2- ethylhexyl)3 [compound C]
[10]
  Adjuvant effect on efficacy of nicosulfuron (in words): particularly effective as adjuvants for nicosulfuron

## Glycerol-(6EO-CO3- phenyl)3 [compound D]
[10]
  Adjuvant effect on efficacy of nicosulfuron (in words): particularly effective as adjuvants for nicosulfuron

## Oleyl 10EO-(CO3-2- ethylhexyl) [compound E]
[10]
  Adjuvant effect on efficacy of nicosulfuron (in words): particularly effective adjuvant for nicosulfuron
[12]
  Adjuvant effect on efficacy of pinoxaden (in words): effective as an adjuvant for pinoxaden
Septoria tritici [13]
  Effect on infection by S. tritici versus isopyrazam without adjuvant (in words): significant reduction in the percentage of infection by S. tritici
Septoria tritici [1]; 0.1% v/v compound E with epoxiconazole, Table 14
  Effect on infection by S. tritici versus epoxiconazole without adjuvant (in words): significant reduction in the percentage of infection by S. tritici
